Results on one compound are retold here after publication PMC10349806 (Nature Communications, 2023).

The assay addresses T1, PfCRT variant E271A (Plasmodium falciparum, UniProt Q9N623, A220S/I356T/K76T/M74I/N326S/N75E/Q271A/R371I).
T1 sequence (Q9N623 1-424 M74I/N75E/K76T/A220S/Q271A/N326S/I356T/R371I): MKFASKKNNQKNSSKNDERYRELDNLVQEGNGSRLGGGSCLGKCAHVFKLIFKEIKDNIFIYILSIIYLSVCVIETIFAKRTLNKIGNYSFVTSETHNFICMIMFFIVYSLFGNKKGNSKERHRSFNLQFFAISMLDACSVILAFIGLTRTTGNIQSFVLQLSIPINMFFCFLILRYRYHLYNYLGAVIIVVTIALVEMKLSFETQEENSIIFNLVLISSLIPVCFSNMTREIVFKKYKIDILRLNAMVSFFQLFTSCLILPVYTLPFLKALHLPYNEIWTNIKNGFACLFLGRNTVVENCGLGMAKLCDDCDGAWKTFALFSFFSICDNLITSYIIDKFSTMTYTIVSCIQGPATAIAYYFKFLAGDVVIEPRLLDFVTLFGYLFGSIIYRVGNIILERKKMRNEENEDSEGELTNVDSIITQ
Briefly: CQ uptake assay, oocytes expressing E271A. The assay is classed as cell-based. As for the experimental part: Site-directed mutagenesis of PfCRT^Dd2 was performed as described using the megaprimer method with overlap extension[21],[54]. The primer pairs used are listed in Supplementary Table 6. Please note that a codon-optimized and oocyte-adapted version of PfCRT^Dd2 was used[22] (Supplementary Fig. 16). The resulting DNA fragment was cloned into the SP64T expression vector and verified by sequencing.
Oocytes were obtained as described previously. Briefly, adult (>2 years old) female X. laevis frogs (NASCO) were anesthetized in a cooled solution of ethyl 3-amino benzoate methanesulfonate (0.1%, w/v), followed by a surgical removal of parts of the ovary. The ovary lobes were carefully dissected and small pieces of oocytes were incubated in Ca^2+-free ND96 buffer (96 mM NaCl, 2 mM KCl, 1 mM MgCl2 buffered with 5 mM HEPES/NaOH, pH 7.5) supplemented with collagenase D (0.1%, w/v; Roche), BSA (0.5%, w/v), and 9 mm Na2HPO4 at 18 °C for 14-16 h while gentle shaking. After incubation, the oocytes were carefully washed several times with ND96 buffer (96 mM NaCl, 2 mM KCl, 1.8 mM CaCl2, 1 mM MgCl2 buffered with 5 mM HEPES/NaOH, pH 7.5) supplemented with 100 mg l^−1 gentamycin). Defolliculated and healthy-looking stage V-VI oocytes were manually selected for RNA microinjection. The RNA was generated as following: The codon-optimized sequences of PfCRT variants were cloned into the pSP64T expression vector. After vector linearization using the restriction endonucleases BamHI or SalI (New England Biolabs), transcription was performed using the in vitro SP6 mMessage mMachine Kit (Ambion)[34]. The obtained RNA was kept at −80 °C and diluted with nuclease-free water to a concentration of 0.6 μg μl^−1. Precision-bore glass capillary tubes (3.5-inch glass capillaries; Drummond Scientific Co.) were pulled on a vertical puller (P-87 Flaming/Brown micropipette puller, Sutter Instrument Co.), graduated, and placed on a microinjector (Nanoject II Auto-Nanoliter Injector, Drummond Scientific Co.). 50 nl of nuclease-free water alone (control oocytes) or 50 nl of 0.6 μg μl^−1 RNA were injected under stereomicroscopic control. Injected oocytes were incubated for 46–72 h at 18 °C with twice-daily buffer changes before usage in experiments.
Drug uptake assays were performed as described previously[21],[22],[24],[34]. […] Oocytes that were injected with water instead of RNA were analyzed in parallel, representing the uptake of a drug by diffusion and/or endogenous permeation pathways. […] The specific PfCRT-mediated uptake was determined by subtracting the corresponding background value measured in water-injected oocytes from that of PfCRT-expressing oocytes. […]

Structures are written as SMILES. Where “and” joins values, the source holds several entries; their conditions need not be identical. Identical values can stand only once.

Consider `CCN(CC)CCCC(C)Nc1ccnc2cc(Cl)ccc12` (stereo not shown) [CQ, chloroquine], for which, under “E271A, 50 µM CQ, 1 h, mean ± SEM”, the “Activity at pH 4.5” value turned out to be 1.01 ± 0.09 pmol h-1 oocyte-1. Also, the R-value (E271A, CQ transport at pH 4.5 / pH 6.0) amounted to 0.61 ± 0.09. The “E271A transport activity pH 4.5” value (pH 4.5, single replicates, Fig 1d left) was 1.17 pmol oocyte-1 h-1 and 1.13 pmol oocyte-1 h-1 and 0.65 pmol oocyte-1 h-1 and 0.98 pmol oocyte-1 h-1. Besides, the “E271A transport activity pH 6.0” value (pH 6.0, single replicates, Fig 1d left) was 1.98 pmol oocyte-1 h-1 and 1.71 pmol oocyte-1 h-1 and 1.20 pmol oocyte-1 h-1 and 2.10 pmol oocyte-1 h-1 and 1.74 pmol oocyte-1 h-1.
